Laboratory results as given in patent publication EP2985032B1, “GLYX FOR USE IN THE TREATMENT OF ALZHEIMER'S DISEASE, PARKINSON'S DISEASE OR HUNTINGTON'S DISEASE” (Northwestern University, priority 2009, dated 2019).
No end group written: not given here.

Experiments:
rats [1] = assay: Open field test of anxiety; type: in vivo; conditions: for increase in the amount of time spent in the center of the field compared to vehicle: Example 6, P < .05
Experimental: The purpose of this study was to evaluate action of GLYX-13 on anxiety. In order to gauge the effect of GLYX-13 in rats, the open field test of anxiety was conducted. The open field test is a widely used neophobic test of anxiety (see, Treit D, Fundytus M. Thigmotaxis as a test for anxiolytic activity in rats. Pharmachol Biochem Behav 1989;31:959-62.).
The open field area used for the open field test generally consists of an empty and bright square (or rectangular) arena, surrounded by walls. For the current study, an open field of 45 cm X 35 cm X 20 cm high was used. The rat was placed in the center of the arena and its behavior recorded over a predefined period of time (usually between 2 to 15 min). The open field test is based on the natural tendency of the rats to avoid open spaces. The open field test is based on the conflict between the innate anxiety that rats have of the central area of the open space versus their desire to explore new environments. When rats are in an anxious state, they have a natural tendency to stay near the walls. This natural tendency of the rats to stay close to the walls is called thigmotaxis. In this context, anxiety-related behavior is measured by the degree to which the rat avoids the center of the open field test. Determining the propensity of the rat to avoid the open field can be determined by measuring the number of center crosses made by the rats over a predefined interval of time, or by determining the amount of time the rat stays in the center of the field.
(§1) In order to evaluate the effectiveness of GLYX-13 as an anxiolytic, two groups of three month old FBNF1 rats were used. The first group was composed of 13 rats and the second group was composed of 11 rats. The first group of rats was intravenously injected with 10 mg/kg GLYX-13 and the second group of rats was intravenously injected with PBS vehicle (1 ml/kg) in a blind manner via chronic […] femoral vein access ports. Both groups of rats were injected 10 to 15 minutes before the start of testing. After GLYX-13 injections, both groups of rats were tested in the open field.
For the open field test, rats were habituated to the open field for 2 minutes each day for three consecutive days before the final 2 minute test session in which GLYX-13 or vehicle was administered. Open field activity was recorded by a video camera mounted above the open field area, and number of center crosses in the open field was measured.
A second experiment was performed in the same manner as Example 3, except that groups of 8-10 two- to three-month old male Sprague-Dawley rats pretreated with either intravenous (1, 3, 10, 32 mg / kg), subcutaneous (1, 3, 10, 32, 56, 100 mg / kg) injections of GLYX-13, ketamine (10 mg/kg i.p.) or saline vehicle (1 mg / ml) 15 min (i.v.), 20 (s.c.) or 60 (i.p.) min before the start of the 5 min test session. Each data point represents a group of 8-10 rats. The average (mean) amount of time animals spent in the center of the field was measured.
To evaluate whether the anti-depressive and anxiolytic effects of GLYX-13 would persist beyond a few hours, rats were tested in the Porsot test and the Open Field test, described above. […] Mean (± SEM) time (sec.) spent floating in the Porsolt test, time spent in the center compartment (sec.), and line crosses in the open field test were determined.

rats [2] = assay: Porsolt test (Forced Swim Test) of depression; type: in vivo; parameters: Mean Immobility Time: unit not given beside the values
rats [3] = assay: Porsolt test (Forced Swim Test) of depression; type: in vivo; parameters: Mean Immobility Time: unit not given beside the values; conditions: for maximum reduction in floating compared to saline vehicle / Mean Immobility Time: Example 2; for maximum reduction in floating compared to saline vehicle: P < .01
Experimental: For the evaluation of the antidepressant actions of GLYX-13, the effect of GLYX-13 in the Porsolt test of depression was examined in rats. Porsolt testing is the most commonly used test for assessment of depression in animal model. Porsolt testing, also known as Forced Swim Test, is based on a behavioral trait that is sensitive to changes in affective state. During this test, the animal is placed in a tank (18 cm diameter x 45 cm height) filled to 30 cm with 22-23°C water. After placing the animal in the tank, the amount of time for which the rat is immobile when it stops struggling is measured. Porsolt test is based on the fact that antidepressants increase the latency to immobility and decrease the time for which the rat is immobile. […] The interpretation of the Porsolt test is that the antidepressants reinstate active coping mechanisms and decrease the passive immobility evoked by stress.
In order to evaluate the effectiveness of GLYX-13 as antidepressant, three month old FBNF1 rats were separated into two groups of 9 animals. The first group of rats was intravenously injected with 10 mg/kg GLYX-13 and the second group of animals was intravenously injected with PBS vehicle (1 ml/kg) in a blind manner via chronic subdural femoral vein access ports. Both groups of animals were injected 10 to 15 minutes before the start of testing.
For Porsolt testing, animals were given a 15 minute pre-test habituation in the tank to induce learned helplessness on day one. Following this, on the subsequent day, the animals were injected with GLYX-13 or vehicle 10-15 minutes before being placed into the tank for a 5 minute test session. After placing the animals in the tank, the amount of time for which each animal is immobile when it stops struggling (Mean Immobility Time) was measured. Decrease in Mean Immobility Time is a measure of the effectiveness of the antidepressant.
A second experiment was performed in the same manner as Example 1, except that 2-3 month Sprague-Dawley rats were used, and treated with either intravenous (1, 3, 10, 32 mg / kg), subcutaneous (1,3, 10, 32, 56, 100 mg / kg) injections of GLYX-13 or saline vehicle (1 mg / ml) 15 (i.v.) or 20 (s.c.) min before the start of the final 5 min test session. Ketamine (10 mg / kg i.p.) was given 60 min before the start of testing (Garcia et al., (2008) Prog Neuropsychopharmacol Biol Psychiatry, 32, 140-144). Subcutaneous administration of 10 mg/kg ketamine followed by testing after 20 min post dosing produced severe dissociative side effects, as shown in Figure 3.
To determine whether GLYX-13 acts in an area of the brain that is clinically relevant for depression, GLYX-13 was administered to either the medial prefrontal cortex (MPFC), which is associated with mood and depression, or to the motor cortex (Fig. 4). Mean time spent immobile in the Porsolt test was determined for groups of 10 three-month old male Fisher Brown Norway F1 (FBNF1) rats pretreated with a single injection of GLYX-13 (1, 10 ug / side) or a single saline vehicle injection (0.5 ul / 1 min) bilaterally into the medial prefrontal cortex or motor cortex (dorsal control) in animals with surgically implanted chronic indwelling cannulae aimed at the MPFC. Microinjections were made 1 week after surgery, and Porsolt testing was conducted 20 min post injection. Animals received a single 15 min training swim session one day before dosing.
To determine whether the antidepressant effect of GLYX-13 was specific to the sequence of the GLXY-13 peptide, mean time (sec) spent floating in the Porsolt test was determined in groups of 12 three-month old Sprague Dawley rats administered with GLYX-13 (TPPT-NH2; 3 mg / kg, i.v. tail vein), a scrambled peptide ([…]; 3 mg / kg i.v. tail vein), or 0.9% saline vehicle (1 ml / kg, i.v. tail vein). Administration occurred 60 min before the 5 min. testing session. Animals received a 15 min. training swim session one day before dosing. […]

rats [4] = assay: 50-kHz ultrasonic vocalizations model of positive affect (rough-and-tumble play); type: in vivo; conditions: Example 8; 10 mg/kg i.v., 10-15 min before test; FBNF1 rats; Mean ± SEM; P < .01
From the text: To evaluate the hedonic effect of GLYX-13 in this study, the 50-kHz ultrasonic vocalizations model of positive affect was examined in rats (see, Burgdorf, J., Panksepp, J., Brudzynski, S.M., Kroes, R.A. & Moskal, J.R. (2008). The effect of selective breeding for differential rates of 50-kHz ultrasonic vocalizations on emotional behavior in rats. Devel. Psychobiology, 51, 34-46.).
as §1, with “As a part of” for “In order to evaluate”, “study,” for “effectiveness of GLYX-13 as an anxiolytic,”, “10mg/kg” for “10 mg/kg”, “test.” for “testing. After GLYX-13 injections, both groups of rats were tested in the open field.”
For hedonic ultrasonic vocalizations (USVs), animals received 2 minutes of heterospecific RTP habituation before the final 2 minutes test session.

[5] = tested on: rat hippocampal organotypic cultures; assay: LTP / LTD in hippocampal organotypic cultures; type: cell-based; conditions: in vitro
[6] = Example 7, 3 mg / kg i.v., Sprague-Dawley rats

With “L-threonyl-L-prolyl-L-prolyl-L-threonine amide (TPPT-NH2) [GLYX-13, NMDAR glycine-site partial agonist]” the “increase in center crosses compared to vehicle” value (rats [1]; Example 5, 10 mg/kg i.v., 10-15 min before test, FBNF1 rats, Mean ± SEM, P < .005) was 172.6 ± 34.3%, the “increase in the amount of time spent in the center of the field compared to vehicle” value (rats [1]; intravenous administration, 15 min before test, Sprague-Dawley rats, Mean ± SEM) was 42± 5% and the “increase in the amount of time spent in the center of the field compared to vehicle” value (rats [1]; subcutaneous administration, 20 min before test, Sprague-Dawley rats, Mean ± SEM) was 36 ± 5%. For the same substance, the “increase in mean center time compared to saline control” value (rats [1]; Example 7, 3 mg / kg i.v., tested 120 hrs post dosing, Sprague-Dawley rats, mean ± SEM) was 125% ± 5, the “duration of anxiolytic effects of a single administration” value (rats [1]; [6]) was “up to 5 days” and the “Mean Immobility Time” value (rats [2]; Example 2, i.v., dose printed as 2, 15 min before test, Sprague-Dawley rats) was 84.9 ±15.0. For the same substance, the “Mean time spent immobile” value (rats [2]; Example 3, MPFC injection, dose 0.1 (ug / side), FBNF1 rats, Mean ± SEM) was 108.77 ±12.34, the “reduction in floating compared to PBS vehicle” value (rats [3]; Example 1, 10 mg/kg i.v., 10-15 min before test, three month old FBNF1 rats, Mean ± SEM, P < .0001) was 56.4 ± 4.6% and the “maximum reduction in floating compared to saline vehicle” value (rats [3]; administered intravenously, Sprague-Dawley rats, Mean ± SEM) was 50 ± 10%. The “maximum reduction in floating compared to saline vehicle” value (rats [3]; administered subcutaneously, Sprague-Dawley rats, Mean ± SEM) was 43 ± 7%, the “Mean Immobility Time” value (rats [3]; i.v., dose 3 (mg/kg), 15 min before test, Sprague-Dawley rats) was 66.14 ±27.53 and the “Mean Immobility Time” value (rats [3]; i.v., dose 10 (mg/kg), 15 min before test, Sprague-Dawley rats) was 60.6 ±14.7. The “Mean Immobility Time” value (rats [3]; i.v., dose 32 (mg/kg), 15 min before test, Sprague-Dawley rats) was 87.19±17.85, the “Mean Immobility Time” value (rats [3]; s.c., dose 1 (mg/kg), 20 min before test, Sprague-Dawley rats) was 135.5 ±22.0 and the “Mean Immobility Time” value (rats [3]; s.c., dose 3 (mg/kg), 20 min before test, Sprague-Dawley rats) was 100.2 ±15.7. The “Mean Immobility Time” value (rats [3]; s.c., dose 10 (mg/kg), 20 min before test, Sprague-Dawley rats) was 76.9 ±9.7, the “Mean time spent immobile” value (rats [3]; Example 3, MPFC injection, dose 1 (ug / side), FBNF1 rats, Mean ± SEM) was 53.46 ±10.65 and the “Mean time spent immobile” value (rats [3]; Example 3, MPFC injection, dose 10 (ug / side), FBNF1 rats, Mean ± SEM) was 62.54±8.7. For the same substance, the “reduction in floating compared to a saline control or to GLYX-13 injected into motor cortex” value (rats [3]; Example 3, injected bilaterally into the MPFC, FBNF1 rats, 20 min post injection, Mean ± SEM) was 50 ± 5%, the “Mean time spent immobile” value (rats [3]; Example 3, injected into motor cortex (dorsal control), FBNF1 rats, Mean ± SEM) was 113.7 ±13.1 and the “reduction in mean floating time compared to saline injection or scrambled peptide” value (rats [3]; Example 4, 3 mg / kg i.v. tail vein, 60 min before test, Sprague Dawley rats, Mean ± SEM) was 70 ± 5%. For the same substance, the “reduction in mean floating time compared to saline control” value (rats [3]; Example 7, 3 mg / kg i.v., tested 96 hrs post dosing, Sprague-Dawley rats, mean ± SEM) was 82% ± 2, the “duration of antidepressant effects of a single administration” value (rats [3]; [6]) was “up to 4 days” and the onset of action (rats [3]; single dose, rats) was “within minutes”. For the same substance, the “increase in rates of play-induced positive affective 50-kHz USVs compared to vehicle” value (rats [4]) was 178.5 ± 48.3%, the “long-term depression (LTD)” value [5] was “reducing” and the “long-term potentiation (LTP)” value [5] was “markedly elevate”.
